According to ChEMBL document CHEMBL1759972, “Phenoxyacetic acids as PPARδ partial agonists: synthesis, optimization, and in vivo efficacy” (Bioorg Med Chem Lett, 2011):
pEC50, pIC50: −log10 of the molar value.

Key:
[1] = target: T1, Peroxisome proliferator-activated receptor delta (Homo sapiens, UniProt Q03181)
T1 sequence (Q03181 whole entry): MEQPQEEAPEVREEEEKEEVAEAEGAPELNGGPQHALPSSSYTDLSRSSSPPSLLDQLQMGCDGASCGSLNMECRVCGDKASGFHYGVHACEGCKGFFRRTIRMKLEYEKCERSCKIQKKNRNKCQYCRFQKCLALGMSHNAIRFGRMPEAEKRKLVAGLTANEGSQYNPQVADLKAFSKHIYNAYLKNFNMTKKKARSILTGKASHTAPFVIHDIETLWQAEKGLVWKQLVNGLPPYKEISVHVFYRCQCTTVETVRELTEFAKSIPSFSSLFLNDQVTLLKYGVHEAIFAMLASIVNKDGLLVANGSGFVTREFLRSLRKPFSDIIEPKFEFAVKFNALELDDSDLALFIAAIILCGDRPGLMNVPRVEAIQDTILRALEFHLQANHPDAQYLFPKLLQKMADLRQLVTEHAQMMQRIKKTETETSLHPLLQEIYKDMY
Description: Displacement of [3H]GW 2433 from human PPARdelta by scintillation proximity assay

[2] = target: T1, Peroxisome proliferator-activated receptor delta; remark: listed apart in the source
Description: Partial agonist activity at human PPARdelta expressed in african green monkey CV1 cells transfected with Gal4 assessed as beta-galactosidase activity by transactivation assay

[3] = target: T2, Peroxisome proliferator-activated receptor alpha (Homo sapiens, UniProt Q07869); test: Displacement of [3H]GW 2433 from human PPARalpha by scintillation proximity assay
T2 sequence (Q07869 whole entry): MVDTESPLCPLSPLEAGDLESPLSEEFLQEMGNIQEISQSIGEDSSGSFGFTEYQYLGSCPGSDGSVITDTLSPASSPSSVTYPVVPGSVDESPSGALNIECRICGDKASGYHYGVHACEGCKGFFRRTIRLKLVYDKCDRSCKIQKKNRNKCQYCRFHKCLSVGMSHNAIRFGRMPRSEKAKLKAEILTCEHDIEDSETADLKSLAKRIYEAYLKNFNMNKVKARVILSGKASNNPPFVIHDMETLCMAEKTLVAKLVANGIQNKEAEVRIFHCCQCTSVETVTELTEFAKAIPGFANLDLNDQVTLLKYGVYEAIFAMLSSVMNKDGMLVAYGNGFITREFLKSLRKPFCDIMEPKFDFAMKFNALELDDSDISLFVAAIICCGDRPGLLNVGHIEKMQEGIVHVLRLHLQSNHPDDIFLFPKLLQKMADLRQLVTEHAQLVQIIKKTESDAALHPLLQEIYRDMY

[4] = target: T3, Peroxisome proliferator-activated receptor gamma (Homo sapiens, UniProt P37231)
T3 sequence (P37231 whole entry): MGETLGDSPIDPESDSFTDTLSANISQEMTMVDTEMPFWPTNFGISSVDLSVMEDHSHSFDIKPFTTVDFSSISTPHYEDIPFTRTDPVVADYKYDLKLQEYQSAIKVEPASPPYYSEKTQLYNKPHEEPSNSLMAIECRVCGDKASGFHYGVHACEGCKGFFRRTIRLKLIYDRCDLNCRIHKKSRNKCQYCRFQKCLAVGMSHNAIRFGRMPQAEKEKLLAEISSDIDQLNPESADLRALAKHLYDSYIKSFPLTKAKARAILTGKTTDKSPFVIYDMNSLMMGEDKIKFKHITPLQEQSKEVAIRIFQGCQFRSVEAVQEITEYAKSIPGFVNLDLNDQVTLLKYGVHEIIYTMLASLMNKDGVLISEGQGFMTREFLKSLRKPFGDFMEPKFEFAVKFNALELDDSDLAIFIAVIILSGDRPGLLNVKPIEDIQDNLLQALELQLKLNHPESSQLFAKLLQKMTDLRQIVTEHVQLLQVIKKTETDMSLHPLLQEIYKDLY
Description: Displacement of [3H]GW 2433 from human PPARgamma by scintillation proximity assay

Row | pIC50 [1] | pEC50 [2] | pIC50 [3] | pIC50 [4] | SMILES
1 | 6.10 | 6.40 | 4.80 | – | CCCCCN(c1cccc(-c2ccc(Cl)cc2)c1C)S(=O)(=O)c1ccc(OC(C)C(=O)O)c(C)c1C (stereo not drawn)
2 | 6.60 | 6.40 | 4.90 | – | CCCCN(c1cccc(-c2ccc(Cl)cc2)c1C)S(=O)(=O)c1ccc(OC(C)C(=O)O)c(F)c1Cl (stereo not drawn)
3 | 5.30 | 5.50 | 5.00 | 5.10 | CCCCN(c1cc(-c2ccc(Cl)cc2)c(F)cc1C)S(=O)(=O)c1ccc(OC(C)C(=O)O)c(C)c1C (stereo not drawn)
4 | 7.90 | 8.70 | 5.20 | 5.60 | CCCCN(c1cccc(-c2ccc(Cl)cc2)c1C)S(=O)(=O)c1ccc(OCC(=O)O)c(C)c1C
5 | 5.90 | 5.70 | 4.70 | – | Cc1c(-c2ccc(Cl)cc2)cccc1N(CCCC(F)(F)F)S(=O)(=O)c1ccc(OC(C)C(=O)O)c(C)c1C (stereo not drawn)
6 | 8.10 | 8.00 | 4.90 | – | CCCCN(c1cccc(-c2ccc(Cl)cc2)c1Cl)S(=O)(=O)c1ccc(OC(C)C(=O)O)c(C)c1C (stereo not drawn)
7 | 6.80 | < 5.00 | 5.00 | – | CCCCC(Oc1ccc(S(=O)(=O)N(CCCC)c2cccc(-c3ccc(Cl)cc3)c2C)c(C)c1C)C(=O)O (stereo not drawn)
8 | 7.10 | 7.50 | 4.80 | – | CCCCN(c1cccc(-c2ccc(C)cc2)c1C)S(=O)(=O)c1ccc(OC(C)C(=O)O)c(C)c1C (stereo not drawn)
9 | 6.20 | – | 5.00 | – | CCCCN(c1cccc(-c2ccc(Cl)cc2)c1C)S(=O)(=O)c1ccc(OC(C)C(=O)O)c(F)c1F (stereo not drawn)
10 | 6.10 | 6.10 | 4.80 | – | Cc1c(-c2ccc(Cl)cc2)cccc1N(CC1CC1)S(=O)(=O)c1ccc(OC(C)C(=O)O)c(C)c1C (stereo not drawn)
11 | 7.60 | 7.70 | 4.90 | – | CCCCN(c1cccc(-c2ccc(Cl)cc2)c1OC)S(=O)(=O)c1ccc(OC(C)C(=O)O)c(C)c1C (stereo not drawn)
12 | 6.90 | 6.90 | 4.70 | – | CCCCN(c1cccc(-c2ccc(Cl)c(Cl)c2)c1C)S(=O)(=O)c1ccc(OC(C)C(=O)O)c(C)c1C (stereo not drawn)
13 | 5.50 | 6.00 | 4.90 | 5.00 | CCCCN(c1cc(-c2ccc(Cl)cc2)ccc1OC(F)(F)F)S(=O)(=O)c1ccc(OC(C)C(=O)O)c(C)c1C (stereo not drawn)
14 | 7.20 | 6.90 | 4.80 | – | CCCCN(c1cccc(-c2ccc(Cl)cc2)c1C)S(=O)(=O)c1ccc(OC(CC)C(=O)O)c(C)c1C (stereo not drawn)
15 | 7.80 | 7.80 | 4.80 | 5.10 | CCCCN(c1cccc(-c2ccc(Cl)cc2)c1C)S(=O)(=O)c1ccc(OC(C)C(=O)O)c(C2CCCCC2)c1 (stereo not drawn)
16 | 7.10 | 7.40 | 5.00 | – | CCCCN(c1cccc(-c2ccc(OC(F)(F)F)cc2)c1C)S(=O)(=O)c1ccc(OC(C)C(=O)O)c(C)c1C (stereo not drawn)
17 | 7.00 | 7.40 | 4.80 | – | CCCCN(c1cccc(-c2ccc(OC)cc2)c1C)S(=O)(=O)c1ccc(OC(C)C(=O)O)c(C)c1C (stereo not drawn)
18 | 5.80 | 6.10 | 5.00 | 5.20 | CCCCN(c1cc(-c2ccc(Cl)cc2)ccc1C)S(=O)(=O)c1ccc(OC(C)C(=O)O)c(C)c1C (stereo not drawn)
19 | 7.80 | – | 4.80 | – | CCCCN(c1cccc(-c2ccc(C(F)(F)F)cc2)c1C)S(=O)(=O)c1ccc(OC(C)C(=O)O)c(C)c1C (stereo not drawn)

Row | pIC50 [1] | pEC50 [2] | pIC50 [3] | pIC50 [4] | SMILES
20 | 6.40 | 6.90 | 4.70 | 5.50 | CCCCN(c1ccc(C)c(-c2ccc(Cl)cc2)c1)S(=O)(=O)c1ccc(OC(C)C(=O)O)c(C)c1C (stereo not drawn)
21 | 6.20 | 6.30 | 5.10 | – | CCCCN(c1cccc(-c2cccc(Cl)c2)c1C)S(=O)(=O)c1ccc(OC(C)C(=O)O)c(C)c1C (stereo not drawn)
22 | 6.90 | 7.10 | 4.70 | – | CCCN(c1cccc(-c2ccc(Cl)cc2)c1C)S(=O)(=O)c1ccc(OC(C)C(=O)O)c(C)c1C (stereo not drawn)
23 | 7.10 | 7.20 | 5.00 | – | CCCCN(c1cccc(-c2ccc(Cl)cc2)c1C)S(=O)(=O)c1ccc(OC(C)C(=O)O)c(Cl)c1Cl (stereo not drawn)
24 | 7.20 | 7.00 | 4.90 | 5.30 | CCCCN(c1cc(-c2ccc(Cl)cc2)cc(C(F)(F)F)c1)S(=O)(=O)c1ccc(OC(C)C(=O)O)c(C)c1C (stereo not drawn)
25 | 5.30 | < 5.00 | < 4.60 | – | CCCCN(c1cccc(-c2ccc(Cl)cc2)c1C)S(=O)(=O)c1ccc(OC(C)C(=O)O)c(OC)c1OC (stereo not drawn)
26 | – | – | 4.80 | – | CCCCN(c1cccc(-c2ccc(Cl)cc2)c1C)S(=O)(=O)c1ccc(OC(C)C(=O)O)c(F)c1OC (stereo not drawn)
27 | 7.60 | 7.90 | 4.70 | – | CCCCN(c1cccc(-c2ccc(Cl)cc2)c1C)S(=O)(=O)c1ccc(O[C@H](C)C(=O)O)c(C)c1C
28 | 5.80 | 5.70 | 4.90 | – | CCCCN(c1cccc(-c2ccccc2Cl)c1C)S(=O)(=O)c1ccc(OC(C)C(=O)O)c(C)c1C (stereo not drawn)
29 | 6.30 | 6.30 | < 4.70 | – | COCCN(c1cccc(-c2ccc(Cl)cc2)c1C)S(=O)(=O)c1ccc(OC(C)C(=O)O)c(C)c1C (stereo not drawn)
30 | 6.20 | 6.50 | 4.80 | – | CCCCN(c1cccc(-c2ccc(Cl)cc2)c1C)S(=O)(=O)c1ccc(O[C@@H](C)C(=O)O)c(C)c1C
31 | 5.00 | < 5.00 | 4.70 | 5.10 | CCCCN(c1c(C)cc(C)c(-c2ccc(Cl)cc2)c1C)S(=O)(=O)c1ccc(OC(C)C(=O)O)c(C)c1C (stereo not drawn)
32 | 6.70 | 7.40 | 4.70 | 5.70 | CCCCN(c1ccc(F)c(-c2ccc(Cl)cc2)c1)S(=O)(=O)c1ccc(OC(C)C(=O)O)c(C)c1C (stereo not drawn)
33 | 5.90 | 6.80 | 4.80 | 5.30 | Cc1cc(S(=O)(=O)N(CCC(C)C)c2cccc(-c3ccc(C(F)(F)F)cc3)c2)ccc1OCC(=O)O
34 | 6.80 | 6.50 | 4.80 | – | CCCCN(c1cccc(-c2ccc(Cl)cc2)c1C)S(=O)(=O)c1ccc(OC(C)C(=O)O)c(OC)c1Cl (stereo not drawn)
35 | 6.80 | < 5.00 | 5.00 | – | CCCCN(c1cccc(-c2ccc(Cl)cc2)c1C)S(=O)(=O)c1ccc(OC(CCC)C(=O)O)c(C)c1C (stereo not drawn)
36 | 5.50 | 5.90 | 5.00 | 5.80 | CCCCN(c1cc(-c2ccc(Cl)cc2)c(F)cc1F)S(=O)(=O)c1ccc(OC(C)C(=O)O)c(C)c1C (stereo not drawn)
37 | 6.00 | 6.30 | 4.90 | – | Cc1c(-c2ccc(Cl)cc2)cccc1N(CC1CCC1)S(=O)(=O)c1ccc(OC(C)C(=O)O)c(C)c1C (stereo not drawn)
